Reference: BigSolDB 2.1

A solubility (mole fraction) (in acetone, 283.2 K) of 0.000735, a solubility (mole fraction) (in acetone, 293.2 K) of 0.000972 and a solubility (mole fraction) (in acetone, 303.2 K) of 0.00129 were found for O=c1c2ccccc2nc2n1CCc1c-2[nH]c2ccccc12 in this work. For the same compound, the solubility (mole fraction) (in acetone, 313.2 K) was 0.00149, the solubility (mole fraction) (in acetone, 323.2 K) was 0.00196 and the solubility (mole fraction) (in chloroform, 283.2 K) was 0.000287. It also gave a solubility (mole fraction) (in chloroform, 293.2 K) of 0.000511, a solubility (mole fraction) (in chloroform, 303.2 K) of 0.000922 and a solubility (mole fraction) (in chloroform, 313.2 K) of 0.00211. It also gave a solubility (mole fraction) (in chloroform, 323.2 K) of 0.00485, a solubility (mole fraction) (in cyclohexane, 283.2 K) of 6.24e-06 and a solubility (mole fraction) (in cyclohexane, 293.2 K) of 1.14e-05. It also gave a solubility (mole fraction) (in cyclohexane, 303.2 K) of 1.73e-05, a solubility (mole fraction) (in cyclohexane, 313.2 K) of 2.52e-05 and a solubility (mole fraction) (in cyclohexane, 323.2 K) of 3.78e-05. It also gave a solubility (mole fraction) (in dichloromethane, 283.2 K) of 0.00142, a solubility (mole fraction) (in dichloromethane, 288.2 K) of 0.00162 and a solubility (mole fraction) (in dichloromethane, 293.2 K) of 0.00182. It also gave a solubility (mole fraction) (in dichloromethane, 298.2 K) of 0.00196, a solubility (mole fraction) (in dichloromethane, 303.2 K) of 0.00224 and a solubility (mole fraction) (in diethyl ether, 283.2 K) of 0.00024. It also gave a solubility (mole fraction) (in diethyl ether, 288.2 K) of 0.000273, a solubility (mole fraction) (in diethyl ether, 293.2 K) of 0.000313 and a solubility (mole fraction) (in diethyl ether, 298.2 K) of 0.000396. For the same compound, the solubility (mole fraction) (in diethyl ether, 303.2 K) was 0.000454, the solubility (mole fraction) (in ethanol, 283.2 K) was 9.75e-05 and the solubility (mole fraction) (in ethanol, 293.2 K) was 0.000143. It also gave a solubility (mole fraction) (in ethanol, 303.2 K) of 0.000203, a solubility (mole fraction) (in ethanol, 313.2 K) of 0.000279 and a solubility (mole fraction) (in ethanol, 323.2 K) of 0.000394. The solubility (mole fraction) (in ethyl acetate, 283.2 K) was 0.00104, the solubility (mole fraction) (in ethyl acetate, 293.2 K) was 0.00123 and the solubility (mole fraction) (in ethyl acetate, 303.2 K) was 0.00153. It also gave a solubility (mole fraction) (in ethyl acetate, 313.2 K) of 0.00195, a solubility (mole fraction) (in ethyl acetate, 323.2 K) of 0.00255 and a solubility (mole fraction) (in isopropanol, 283.2 K) of 7.94e-05. The solubility (mole fraction) (in isopropanol, 293.2 K) was 0.000127, the solubility (mole fraction) (in isopropanol, 303.2 K) was 0.000192 and the solubility (mole fraction) (in isopropanol, 313.2 K) was 0.000292. For the same compound, the solubility (mole fraction) (in isopropanol, 323.2 K) was 0.000459, the solubility (mole fraction) (in methanol, 283.2 K) was 6.61e-05 and the solubility (mole fraction) (in methanol, 293.2 K) was 8.18e-05. For the same compound, the solubility (mole fraction) (in methanol, 303.2 K) was 0.000117, the solubility (mole fraction) (in methanol, 313.2 K) was 0.000161 and the solubility (mole fraction) (in methanol, 323.2 K) was 0.000229. For the same compound, the solubility (mole fraction) (in n-butanol, 283.2 K) was 0.000186, the solubility (mole fraction) (in n-butanol, 293.2 K) was 0.000266 and the solubility (mole fraction) (in n-butanol, 303.2 K) was 0.000369. It also gave a solubility (mole fraction) (in n-butanol, 313.2 K) of 0.000577, a solubility (mole fraction) (in n-butanol, 323.2 K) of 0.000955 and a solubility (mole fraction) (in n-hexane, 283.2 K) of 6.17e-06. The solubility (mole fraction) (in n-hexane, 293.2 K) was 1.21e-05, the solubility (mole fraction) (in n-hexane, 303.2 K) was 1.62e-05 and the solubility (mole fraction) (in n-hexane, 313.2 K) was 2.63e-05. It also gave a solubility (mole fraction) (in n-hexane, 323.2 K) of 3.97e-05, a solubility (mole fraction) (in n-pentane, 283.2 K) of 4.31e-06 and a solubility (mole fraction) (in n-pentane, 288.2 K) of 6.89e-06. For the same compound, the solubility (mole fraction) (in n-pentane, 293.2 K) was 9.67e-06, the solubility (mole fraction) (in n-pentane, 298.2 K) was 1.53e-05 and the solubility (mole fraction) (in n-pentane, 303.2 K) was 2.47e-05.
